Measured values published in PubChem BioAssay AID200 (DTP/NCI, 2004).
Values joined by “and” are separate entries in the source; they are usually repeats but may differ in a detail not shown here. Equal values may be shown once. Inconclusive results and toxic doses are left out. Where a SMILES comes first, the peptide text is derived from it. The star is where a group is joined. Cbz = O=C(OCc1ccccc1)*

System: B6C3F1 mice, B16 melanoma ip, median survival T/C
Assay: NCI In Vivo Anticancer Drug Screen. Data for tumor model B16 Melanoma (intraperitoneal) in B6C3F1 mice
Conditions: endpoint: median survival time, schedule: Q01DX009 (ip), higher = longer survival
Summary of the method: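 Tumor-bearing mice received test compound; a separate group got vehicle only. Survival was then compared, with results reported as treated over control.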

[1] = dose: 3.0 mg/kg/injection, vehicle: Klucel (hydroxypropylcellulose) (HPC)
[2] = dose: 25.0 mg/kg/injection, vehicle: Klucel (hydroxypropylcellulose) (HPC)
[3] = dose: 50.0 mg/kg/injection, vehicle: Klucel (hydroxypropylcellulose) (HPC)
[4] = dose: 100.0 mg/kg/injection, vehicle: Klucel (hydroxypropylcellulose) (HPC)
[5] = dose: 200.0 mg/kg/injection, vehicle: Klucel (hydroxypropylcellulose) (HPC)
[6] = dose: 400.0 mg/kg/injection, vehicle: Klucel (hydroxypropylcellulose) (HPC)
[7] = dose: 6.25 mg/kg/injection, vehicle: saline with Tween-80
[8] = dose: 12.5 mg/kg/injection, vehicle: saline with Tween-80
[9] = dose: 25.0 mg/kg/injection, vehicle: saline with Tween-80
[10] = dose: 50.0 mg/kg/injection, vehicle: saline with Tween-80
[11] = dose: 100.0 mg/kg/injection, vehicle: saline with Tween-80
[12] = dose: 200.0 mg/kg/injection, vehicle: saline with Tween-80

**Q.** Which T/C (dose: 0.75 mg/kg/injection, vehicle: Klucel (hydroxypropylcellulose) (HPC)) does the source give for `CC(C)CC(NC(=O)CNC(=O)CNC(=O)OCc1ccccc1)C(=O)O` (stereo unspecified) here?
**A.** 103 % of control

**Q.** And the T/C (dose: 1.5 mg/kg/injection, vehicle: Klucel (hydroxypropylcellulose) (HPC))?
**A.** 107 % of control

**Q.** What about the T/C [1] of the same compound?
**A.** 95 % of control

**Q.** And the T/C (dose: 3.12 mg/kg/injection, vehicle: Klucel (hydroxypropylcellulose) (HPC))?
**A.** 101 % of control

**Q.** And the T/C (dose: 6.0 mg/kg/injection, vehicle: Klucel (hydroxypropylcellulose) (HPC))?
**A.** 106 % of control

**Q.** What about the T/C (dose: 6.25 mg/kg/injection, vehicle: Klucel (hydroxypropylcellulose) (HPC)) of the same compound?
**A.** 92 % of control

**Q.** What about the T/C (dose: 12.0 mg/kg/injection, vehicle: Klucel (hydroxypropylcellulose) (HPC)) of the same compound?
**A.** 101 % of control

**Q.** What about the T/C (dose: 12.5 mg/kg/injection, vehicle: Klucel (hydroxypropylcellulose) (HPC)) of the same compound?
**A.** 92 % of control

**Q.** And the T/C [2]?
**A.** 115 % of control and 104 % of control

**Q.** What about the T/C [3] of the same compound?
**A.** 100 % of control

**Q.** And the T/C [4]?
**A.** 122 % of control

**Q.** What about the T/C [5] of the same compound?
**A.** 89 % of control

**Q.** And the T/C [6]?
**A.** 110 % of control

**Q.** Which results are given for `O=C(NC(=S)Nc1ccccc1)c1ccccc1`?
**A.** T/C (dose: 9.4 mg/kg/injection, vehicle: Klucel (hydroxypropylcellulose) (HPC)): 99 % of control; T/C (dose: 18.75 mg/kg/injection, vehicle: Klucel (hydroxypropylcellulose) (HPC)): 94 % of control; T/C (dose: 37.5 mg/kg/injection, vehicle: Klucel (hydroxypropylcellulose) (HPC)): 101 % of control; T/C (dose: 75.0 mg/kg/injection, vehicle: Klucel (hydroxypropylcellulose) (HPC)): 103 % of control

**Q.** What does the source list for `COC(=O)C(NC(=O)C(NC(=O)OCc1ccccc1)C(C)O)C(C)C` (stereo not drawn) (Cbz-Thr-Val-OMe; configuration not given here)?
**A.** T/C [4]: 94 % of control; T/C [5]: 93 % of control; T/C [6]: 108 % of control

**Q.** `O=C[C@@H](CO)O[C@H](C=O)c1c[nH]c(=O)[nH]c1=O` was tested. Which T/C (dose: 25.0 mg/kg/injection, vehicle: saline) did it give?
**A.** 105 % of control

**Q.** And the T/C (dose: 50.0 mg/kg/injection, vehicle: saline)?
**A.** 110 % of control

**Q.** With `O=C1C=C(Nc2ccccc2)c2ccccc2C1=O` as the compound, how does the T/C [2] read?
**A.** 104 % of control

**Q.** And the T/C [3]?
**A.** 96 % of control

**Q.** And the T/C [4]?
**A.** 91 % of control

**Q.** Which T/C [7] does the source give for `c1ccc2c(c1)-c1ccccc1C1NC21` (stereo unspecified) here?
**A.** 103 % of control

**Q.** What about the T/C [8] of the same compound?
**A.** 112 % of control

**Q.** Which results are given for `Cc1ccc(N=NN(C)C)c2cccnc12`?
**A.** T/C (dose: 3.13 mg/kg/injection, vehicle: other): 106 % of control; T/C (dose: 6.25 mg/kg/injection, vehicle: other): 95 % of control; T/C (dose: 12.5 mg/kg/injection, vehicle: other): 108 % of control; T/C (dose: 25.0 mg/kg/injection, vehicle: other): 114 % of control; T/C (dose: 50.0 mg/kg/injection, vehicle: other): 115 % of control

**Q.** With `Nc1ncnc2c1ncn2C1C=C(CO)C(O)C1O` (stereo unspecified) as the compound, how does the T/C (dose: 0.5 mg/kg/injection, vehicle: saline) read?
**A.** 97 % of control and 106 % of control

**Q.** What about the T/C (dose: 1.0 mg/kg/injection, vehicle: saline) of the same compound?
**A.** 99 % of control and 103 % of control

**Q.** And the T/C (dose: 2.0 mg/kg/injection, vehicle: saline)?
**A.** 102 % of control and 103 % of control

**Q.** What about the T/C (dose: 4.0 mg/kg/injection, vehicle: saline) of the same compound?
**A.** 110 % of control and 105 % of control

**Q.** What does the source list for `N=c1c(C(=O)OCc2ccccc2)ncc(CCl)n1O`?
**A.** T/C [9]: 94 % of control; T/C [10]: 95 % of control; T/C [11]: 99 % of control

**Q.** For `N#Cc1ccc(NC(=O)Nc2nncs2)cc1`, which T/C [8] is on record?
**A.** 120 % of control and 105 % of control

**Q.** And the T/C [9]?
**A.** 118 % of control and 107 % of control

**Q.** And the T/C [10]?
**A.** 111 % of control

**Q.** What does the source list for `ClC(Cl)(Cl)C1=NCc2nnn(Cc3ccccc3)c2N1`?
**A.** T/C (dose: 12.5 mg/kg/injection, vehicle: distilled water + Tween-80): 101 % of control; T/C [8]: 105 % of control; T/C (dose: 25.0 mg/kg/injection, vehicle: distilled water + Tween-80): 96 % of control; T/C [9]: 110 % of control; T/C (dose: 50.0 mg/kg/injection, vehicle: distilled water + Tween-80): 93 % of control; T/C [10]: 108 % of control; T/C (dose: 100.0 mg/kg/injection, vehicle: distilled water + Tween-80): 91 % of control; T/C [11]: 105 % of control; T/C (dose: 200.0 mg/kg/injection, vehicle: distilled water + Tween-80): 101 % of control; T/C [12]: 95 % of control; T/C (dose: 400.0 mg/kg/injection, vehicle: distilled water + Tween-80): 101 % of control; T/C (dose: 400.0 mg/kg/injection, vehicle: saline with Tween-80): 95 % of control

**Q.** What does the source list for `COc1c(O)cc2c(c1OC)-c1ccc(SC)c(=O)cc1C(NC(C)=O)CC2` (stereo unspecified)?
**A.** T/C (dose: 1.25 mg/kg/injection, vehicle: Klucel (hydroxypropylcellulose) (HPC)): 160 % of control; T/C (dose: 1.8 mg/kg/injection, vehicle: Klucel (hydroxypropylcellulose) (HPC)): 180 % of control and 182 % of control and 186 % of control; T/C (dose: 2.5 mg/kg/injection, vehicle: Klucel (hydroxypropylcellulose) (HPC)): 156 % of control and 167 % of control; T/C [1]: 178 % of control and 184 % of control and 198 % of control; T/C (dose: 10.0 mg/kg/injection, vehicle: Klucel (hydroxypropylcellulose) (HPC)): 180 % of control

**Q.** What does the source list for `CN(C)C(=O)SC1=C(c2c(Cl)cccc2Cl)C(=O)c2ccccc21`?
**A.** T/C [2]: 98 % of control; T/C [3]: 96 % of control; T/C [4]: 101 % of control; T/C [5]: 101 % of control

**Q.** For `CCc1nc(N)nc(N)c1-c1ccc(Cl)c([N+](=O)[O-])c1`, which T/C (dose: 1.56 mg/kg/injection, vehicle: saline with Tween-80) is on record?
**A.** 106 % of control

**Q.** And the T/C (dose: 3.12 mg/kg/injection, vehicle: saline with Tween-80)?
**A.** 105 % of control

**Q.** What about the T/C (dose: 3.25 mg/kg/injection, vehicle: saline with Tween-80) of the same compound?
**A.** 100 % of control

**Q.** What about the T/C [7] of the same compound?
**A.** 111 % of control

**Q.** And the T/C (dose: 7.5 mg/kg/injection, vehicle: saline with Tween-80)?
**A.** 101 % of control

**Q.** What about the T/C (dose: 15.0 mg/kg/injection, vehicle: saline with Tween-80) of the same compound?
**A.** 103 % of control

**Q.** And the T/C (dose: 30.0 mg/kg/injection, vehicle: saline with Tween-80)?
**A.** 104 % of control

**Q.** What about the T/C (dose: 60.0 mg/kg/injection, vehicle: saline with Tween-80) of the same compound?
**A.** 114 % of control

**Q.** What does the source list for `Cn1c2ccccc2c(=O)c2c(O)cc3c(c21)C=CC(C)(C)O3`?
**A.** T/C [2]: 86 % of control; T/C [3]: 89 % of control; T/C [4]: 96 % of control

**Q.** What does the source list for `CC(O)C(NC(=O)OC(C)(C)C)C(=O)ON1C(=O)CCC1=O` (stereo unspecified)?
**A.** T/C [10]: 98 % of control; T/C [11]: 96 % of control; T/C [12]: 91 % of control

**Q.** For `C=C1C(=O)OC2/C=C(\CO)C(OC(C)=O)CC(O)/C(C)=C/C(OC(=O)C(C)CC)C12` (stereo unspecified), which T/C (dose: 0.2 mg/kg/injection, vehicle: Klucel (hydroxypropylcellulose) (HPC)) is on record?
**A.** 96 % of control

**Q.** And the T/C (dose: 0.39 mg/kg/injection, vehicle: Klucel (hydroxypropylcellulose) (HPC))?
**A.** 103 % of control

**Q.** And the T/C (dose: 0.78 mg/kg/injection, vehicle: Klucel (hydroxypropylcellulose) (HPC))?
**A.** 89 % of control and 103 % of control

**Q.** What about the T/C (dose: 1.56 mg/kg/injection, vehicle: Klucel (hydroxypropylcellulose) (HPC)) of the same compound?
**A.** 110 % of control and 100 % of control

**Q.** `[Cl][Pt+2][Cl].[NH-]c1cc(Cl)c(Cl)cc1[NH-]` was tested. Which T/C (dose: 20.0 mg/kg/injection, vehicle: saline with Tween-80) did it give?
**A.** 97 % of control and 107 % of control

**Q.** What about the T/C (dose: 40.0 mg/kg/injection, vehicle: saline with Tween-80) of the same compound?
**A.** 110 % of control and 101 % of control

**Q.** What about the T/C (dose: 80.0 mg/kg/injection, vehicle: saline with Tween-80) of the same compound?
**A.** 110 % of control and 122 % of control

**Q.** And the T/C (dose: 160.0 mg/kg/injection, vehicle: saline with Tween-80)?
**A.** 111 % of control and 105 % of control

**Q.** And the T/C (dose: 320.0 mg/kg/injection, vehicle: saline with Tween-80)?
**A.** 110 % of control and 106 % of control
